According to patent US8067394B2, “Synthesis and biological activities of new tricyclic-bis-enones (TBEs)” (Trustees of Dartmouth College, priority 2006, dated 2011):
“Also recorded” adds a separate entry of the source.

What was measured:
Jurkat cells = assay: Proliferation of Jurkat cells (Coulter counter); type: cell-based; conditions: FIG. 6; 3-4 days
Experimental: FIG. 6. TBEs inhibit proliferation of Jurkat cells. Cells were treated with TBEs and triterpenoids for 3-4 days and counted by Coulter counter. […] Thus, it is to be expected that TBEs may have useful activities in regulation of lymphocyte, as well as macrophage, function.
Cells were treated with TBEs for 3-4 days and counted by Coulter counter.

HO-1 = assay: Induction of HO-1 in RAW cells (Western blot); type: cell-based, mouse; conditions: FIG. 9; 30-300 nM, 24 hours
heme oxygenase-1 [1] = assay: Induction of heme oxygenase-1 in liver of CD-1 mice after gavage; type: in vivo
Experimental: FIG. 3. […] CD-1 mice (2 per group) were gavaged with TBEs or CDDO-Im in DMSO. After 6 h, livers were harvested and homogenized. Lysates were separated by SDS-PAGE, probed with HO-1 antibodies, and developed by ECL.
FIG. 11. […] Male CD-1 mice (3 per group) were gavaged with 1 μmol TBEs, CDDO or CDDO-Im in DMSO. Six hours later, livers were harvested and homogenized. Lysates were separated by SDS-PAGE, probed with HO-1 antibodies, and developed by ECL.
CD-1 mice (2 per group) were gavaged with TBEs or CDDO-Im in DMSO. After 6 h, livers were harvested and homogenized. Lysates were separated by SDS-PAGE, probed with HO-1 antibodies, and developed by ECL.

[2] = tested on: CD11b expression in U937 cells; assay: CD11b expression in U937 cells (FACS); type: cell-based, human; conditions: FIG. 4; 10-100 nM, 4 days
Experimental: FIG. 4. TBE-31 induces CD11b expression in U937 cells. Cells were incubated with CDDO-Im or TBE-31 (10-100 nM) for 4 days. CD11b expression was measured by FACS analysis. Induction of CD11b is a marker of leukemia cell differentiation.
Cells were incubated with CDDO-Im or TBE-31 (10-100 nM) for 4 days. CD11b expression was measured by FACS analysis. Induction of CD11b is a marker of leukemia cell differentiation.

iNOS = assay: Inhibition of iNOS induction in RAW cells stimulated with IFN-γ (Western blot); type: cell-based, mouse; conditions: FIG. 5; IFNg 10 ng/ml, 24 hours
[3] = tested on: aflatoxin-induced tumorigenesis; design: species or system F344 rats; conditions: rat, in vivo
[4] = tested on: RMPI 8226 human myeloma cells; assay: Proliferation of RMPI 8226 human myeloma cells (Coulter counter); type: cell-based; conditions: FIG. 1; treated 3-4 days
Experimental: (§1) FIG. 1. TBEs inhibit proliferation of RMPI 8226 human myeloma cells and U937 human leukemia cells. Cells were treated with TBEs and triterpenoids for 3-4 days and counted by Coulter counter. […] CDDO is presently in clinical trial for treatment of acute myelogenous leukemia. TP-235 is the imidazolide derivative of CDDO.
(§2) Cells were treated with triterpenoids and TBEs for 3-4 days and counted by Coulter counter. […] CDDO is presently in clinical trial for treatment of acute myelogenous leukemia. TP-235 is the imidazolide derivative of CDDO.

[5] = tested on: A549 human lung cancer cells; assay: Apoptosis in A549 human lung cancer cells; type: cell-based; conditions: FIG. 7; 24 h
Experimental: FIG. 7. TBE-31 induces apoptosis in A549 human lung cancer cells. Cells were treated with TBE-31 for 24 h. A549 is a classic human lung cancer cell line.
Cells were treated for 24 h. A549 is a classic human lung cancer cell line.

[6] = tested on: U937 human leukemia cells; assay: Proliferation of U937 human leukemia cells (Coulter counter); type: cell-based; conditions: FIG. 1; treated 3-4 days
Experimental: as §1, §2

heme oxygenase-1 [7] = assay: Induction of heme oxygenase-1 in stomach of CD-1 mice after gavage; type: in vivo; conditions: FIG. 12; male CD-1 mice, 1 μmol by gavage in DMSO, six hours
Source text: FIG. 12. […] Male CD-1 mice (3 per group) were gavaged with 1 μmol TBEs, CDDO or CDDO-Im in DMSO. Six hours later, stomachs were harvested and homogenized. Lysates were separated by SDS-PAGE, probed with HO-1 antibodies, and developed by ECL.

[8] = tested on: NO production in RAW cells; assay: Inhibition of NO production in RAW cells stimulated with interferon-γ; type: cell-based, mouse
U937 cells = assay: Apoptosis in U937 cells (Annexin V); type: cell-based, human; conditions: FIG. 8, 24 hours
Experimental: FIG. 8. Induction of apoptosis in U937 cells by TBEs. Cells were treated with TBEs and triterpenoids for 24 hours.
Cells were treated for 24 hours.

heme oxygenase-1 [9] = assay: Induction of heme oxygenase-1 in U937 cells (Western blot); type: cell-based, human; conditions: FIG. 2; 0.1-1 μM, 7 hours
Experimental: FIG. 2. […] Cells were incubated with TBEs and triterpenoids (0.1-1 μM) for 7 hours. Total cell lysates were analyzed by SDS-PAGE, probed with an HO-1 antibody, and developed by ECL. […] None of the other TBEs that were tested provided significant induction of heme oxygenase.
Cells were incubated with triterpenoids or TBEs (0.1-1 μM) for 7 hours. Total cell lysates were analyzed by SDS-PAGE, probed with an HO-1 antibody, and developed by ECL. […] None of the other TBEs that were tested provided significant induction of heme oxygenase.

Structure (SMILES): C#CC12C=C(C#N)C(=O)C=C1C1(C)C=C(C#N)C(=O)C(C)(C)C1CC2 (racemic) [TBE-31, 10a-ethynyl-4b,8,8-trimethyl-3,7-dioxo-3,4b,7,8,8a,9,10,10a-octahydrophenanthrene-2,6-dicarbonitrile]
- Inhibition of proliferation of Jurkat cells (Jurkat cells): extremely active, more so than CDDO (TP-151)
- Induction of HO-1 in RAW cells (HO-1): higher inducer than CDDO-Im
- Induction of heme oxygenase-1 in liver in vivo (heme oxygenase-1 [1]; FIG. 3, CD-1 mice, gavage in DMSO, livers after 6 h): orally active agent; also recorded: comparable to that found with CDDO-Imidazolide
- Induction of heme oxygenase-1 in liver (heme oxygenase-1 [1]; FIG. 11, male CD-1 mice, 1 μmol by gavage in DMSO, six hours): potent inducer of heme oxygenase-1 in liver
- Induction of CD11b expression in U937 cells [2]: strongly induces CD11b at 100 nM; also recorded: comparable to that of CDDO-Im at 10 and 30 nM; also recorded: more potent than CDDO-Im at 100 nM
- Suppression of induction of iNOS in RAW 264.7 cells (iNOS): potent suppressor of induction of iNOS; also recorded: significantly more potent than CDDO, and almost as potent as CDDO-Imidazolide
- Formation of preneoplastic (GST-P positive) foci in liver [3]: reduces the formation of preneoplastic foci
- Inhibition of proliferation of RMPI 8226 human myeloma cells [4]: by far the most potent; also recorded: equivalent to that of CDDO itself (TP-151)
- Induction of apoptosis in A549 cells [5]: can induce both early and late apoptosis
- Inhibition of proliferation of U937 human leukemia cells [6]: by far the most potent; also recorded: more potent than CDDO
- Induction of heme oxygenase-1 in stomach (heme oxygenase-1 [7]): induces heme oxygenase-1 in stomach
- IC50 ([8]; Mus musculus, Table 5, C-8a functionalized TBE-9 analogs, stimulated with interferon-γ, read-out: IC50 (nM), NO production in RAW cells): 1 nM
- Potency for inhibition of NO production in RAW cells (in words) ([8]; RAW cells, interferon-γ): extremely potent at one nanomolar concentrations; also recorded: higher than CDDO and equal to TP-225
- Induction of apoptosis in U937 cells (U937 cells): most active of the TBEs; also recorded: markedly more active than CDDO (TP-151)
- Induction of heme oxygenase-1 in U937 cells (heme oxygenase-1 [9]): potent inducer of heme oxygenase; also recorded: markedly more potent than TP-151 (CDDO), and almost as potent as TP-235
